Values joined by “and” are separate entries in the source; they are usually repeats but may differ in a detail not shown here. Equal values may be shown once. “Also recorded” adds a separate entry of the source.
How the values were obtained:
[1] = Aerosol particle size of pentamidine; assay type: physicochemical; conditions: for particle size (MMAD): Respirgard II
Description: A compressed oxygen (5-7 L/min at 345 kPa, 50 psi) powered nebulizer produces the aerosol and one-way valves provide for entrainment of room air in patients whose minute ventilation is high, act as a baffle to decrease particle size, and direct expired air to a filter which removes the remaining particles of drug thereby preventing environmental contamination.
Particles were sized with a 7 stage Mercer cascade impactor (Intox Products, Albuquerque, N. Mex.). The gas supply was 6 L/min, the sample stream was not dried, and the impactor flow rates were 0.5 L/min. […] Results from the average of three determinations at each location were expressed as mass median aerodynamic diameter ±geometric standard deviation (MMAD±GSD). Raabe, J Aerosol Sci (1971) Z:289-303.

[2] = system: Pneumocystis carinii; experiment: Randomized clinical trial of PCP prophylaxis (Example 8); assay type: in vivo, human; conditions: for Relative Hazard of PCP: Cox regression / No PCP (participants) / PCP (participants): all strata
[3] = distal to the nebulizer (point A)
[4] = eligible, PCP within 60 days, 30 mg
[5] = eligible, PCP within 60 days, 150 mg
[6] = eligible, PCP within 60 days, 300 mg, p .004 (30 vs 300 mg)
[7] = eligible, confirmed PCP within 60 days, 30 mg
[8] = eligible, confirmed PCP within 60 days, 150 mg
[9] = eligible, confirmed PCP within 60 days, 300 mg, p .0008 (30 vs 300 mg)
[10] = intention to treat, all PCP, 30 mg
[11] = intention to treat, all PCP, 150 mg
[12] = intention to treat, all PCP, 300 mg, p .02 (30 vs 300 mg)

N=C(N)c1ccc(OCCCCCOc2ccc(C(=N)N)cc2)cc1 [pentamidine, p,p'-(pentamethylenedioxy)dibenzamidine]
particle size (MMAD ± GSD) ([1]; Example 3, nebulizer of Example 2, 600 mg in 6 mL): 1.42±1.88 μm | mass of particles larger than 4 μm ([1]; at the mouthpiece (point B)): less than 5% | particle size (MMAD) ([1]; at the mouthpiece (point B)): 1.42 μm | mass of particles larger than 4 μm [1, 3]: greater than 20% | particle size (MMAD) [1, 3]: 2.38 μm | pentamidine distal to the exhalation filter ([1]; point C): No pentamidine was found distal to the exhalation filter | Completed without Endpoint ([2]; 30 mg every two weeks): 26 | Died, Due to PCP ([2]; 30 mg every two weeks): 5 | Died, Not due to PCP ([2]; 30 mg every two weeks): 51 | Extrapulmonary Pneumocystis ([2]; 30 mg every two weeks): 0 | PCP, Confirmed ([2]; 30 mg every two weeks): 32 | PCP, Unconfirmed ([2]; 30 mg every two weeks): 9 | Completed without Endpoint ([2]; 150 mg every two weeks): 38 | Died, Due to PCP ([2]; 150 mg every two weeks): 6 | Died, Not due to PCP ([2]; 150 mg every two weeks): 47 | Extrapulmonary Pneumocystis ([2]; 150 mg every two weeks): 1 | PCP, Confirmed ([2]; 150 mg every two weeks): 28 | PCP, Unconfirmed ([2]; 150 mg every two weeks): 4 | Completed without Endpoint ([2]; 300 mg every four weeks): 42 | Died, Due to PCP ([2]; 300 mg every four weeks): 5 | Died, Not due to PCP ([2]; 300 mg every four weeks): 46 | Extrapulmonary Pneumocystis ([2]; 300 mg every four weeks): 0 | PCP, Confirmed ([2]; 300 mg every four weeks): 16 | PCP, Unconfirmed ([2]; 300 mg every four weeks): 12 | case fatality rate from first acute PCP episode ([2]; 16 of 101 PCP episodes): 15.8% | share of all deaths due to PCP ([2]; 19 of 160): 11.9% | all cause mortality between treatment arms ([2]; 30, 150, 300 mg): did not significantly differ between the three treatment arms | time to PCP occurrence, dose comparison ([2]; Kaplan-Meier, 300 mg every 4 weeks vs 30 mg every 2 weeks, 150 mg vs 30 mg): 300 mg of aerosolized pentamidine given every 4 weeks was consistently superior to 30 mg of aerosolized pentamidine given every 2 weeks and The 150 mg arm was superior to the 30 mg arm but less so than the 300 mg arm | all cause mortality ([2]; Kaposi's sarcoma stratum): 36% | deaths due to PCP ([2]; all doses): Nineteen deaths occurred due to PCP | deaths ([2]; all doses, 408 participants): 160 | PCP episodes ([2]; all doses, KS stratum): 8 | PCP episodes ([2]; all doses, Other HIV stratum): 15 | PCP episodes ([2]; all doses, total and prior PCP stratum): One hundred-one PCP episodes; also recorded: Seventy-eight occurred in the prior PCP stratum | Relative Hazard of PCP: Cox regression ([2]; confirmed PCP on study drug, 30 vs 300): 3.9 and 3.86 | Relative Hazard of PCP: Cox regression ([2]; confirmed PCP on study drug, 30 vs. 150): 1.7 and 1.71 | No PCP (participants) [2, 4]: 89 | PCP (participants) [2, 4]: 28 | No PCP (participants) [2, 5]: 102 | PCP (participants) [2, 5]: 18 | No PCP (participants) [2, 6]: 113 | PCP (participants) [2, 6]: 16 | No PCP (participants) [2, 7]: 95 | PCP (participants) [2, 7]: 22 | No PCP (participants) [2, 8]: 104 | PCP (participants) [2, 8]: 16 | No PCP (participants) [2, 9]: 121 | PCP (participants) [2, 9]: 8 | No PCP (participants) [2, 10]: 94 | PCP (participants) [2, 10]: 41 | No PCP (participants) [2, 11]: 102 | PCP (participants) [2, 11]: 32 | No PCP (participants) [2, 12]: 111 | PCP (participants) [2, 12]: 28 | Relative Hazard of PCP: Cox regression ([2]; intention to treat, 30 vs 300): 1.78 | Relative Hazard of PCP: Cox regression ([2]; intention to treat, 30 vs. 150): 1.21 | developed PCP ([2]; initial CD4 counts greater than 200, no prior PCP, two of 39): 5.1% | developed PCP ([2]; initial CD4 counts less than 200, no prior PCP, 12 of 89): 13% | all cause mortality ([2]; other HIV stratum): 13%

— patent publication US5364615A (priority 1992, dated 1994)
